Measured values taken from PubChem BioAssay AID1963873 (Molecular Pharmacology Branch, DTP, NCI, 2024).

Test system: 276233-004-R-J1-PDC KRAS spheroids with HUVEC/MSC, viability
Experiment: Anticancer human tumor 276233-004-R-J1-PDC patient-derived colon adenocarcinoma cell line growth inhibition [KRAS2]
Details: for viability, T/C: stronger effect = lower value
Summary of the method: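 KRAS-mutant tumor cells were grown as spheroids with HUVEC endothelial cells and human MSCs as stroma. Targeted agents were tested alone and with KRAS pathway inhibitors. Doses started at or near clinical Cmax, or 10 microM, descending half-log.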

[1] = curve of first compound, second compound 0.1 µM
[2] = curve of first compound, second compound 0.316 µM
[3] = curve of first compound, second compound 1 µM
[4] = curve of first compound, second compound 3.16 µM
[5] = curve of first compound, second compound 10 µM
[6] = second compound 0.1 µM, first compound 0.0316 µM
[7] = second compound 0.1 µM, first compound 0.1 µM
[8] = second compound 0.1 µM, first compound 0.316 µM
[9] = second compound 0.1 µM, first compound 1 µM
[10] = second compound 0.1 µM, first compound 3.16 µM
[11] = second compound 0.1 µM, first compound 10 µM
[12] = second compound 0.316 µM, first compound 0.0316 µM
[13] = second compound 0.316 µM, first compound 0.1 µM
[14] = second compound 0.316 µM, first compound 0.316 µM
[15] = second compound 0.316 µM, first compound 1 µM
[16] = second compound 0.316 µM, first compound 3.16 µM
[17] = second compound 0.316 µM, first compound 10 µM
[18] = second compound 1 µM, first compound 0.0316 µM
[19] = second compound 1 µM, first compound 0.1 µM
[20] = second compound 1 µM, first compound 0.316 µM
[21] = second compound 1 µM, first compound 1 µM
[22] = second compound 1 µM, first compound 3.16 µM
[23] = second compound 1 µM, first compound 10 µM
[24] = second compound 3.16 µM, first compound 0.0316 µM
[25] = second compound 3.16 µM, first compound 0.1 µM
[26] = second compound 3.16 µM, first compound 0.316 µM
[27] = second compound 3.16 µM, first compound 1 µM
[28] = second compound 3.16 µM, first compound 3.16 µM
[29] = second compound 3.16 µM, first compound 10 µM
[30] = second compound 10 µM, first compound 0.0316 µM
[31] = second compound 10 µM, first compound 0.1 µM
[32] = second compound 10 µM, first compound 0.316 µM
[33] = second compound 10 µM, first compound 1 µM
[34] = second compound 10 µM, first compound 3.16 µM
[35] = second compound 10 µM, first compound 10 µM
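Further: cells exposed to agents for seven days before viability read.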
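Wherever viability, T/C is given: 100% = DMSO vehicle control wells and lower values mean fewer viable cells.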

Row | Compound | IC50 [1] [µM] | IC50 [2] [µM] | IC50 [3] [µM] | IC50 [4] [µM] | IC50 [5] [µM] | viability, T/C [6] [%] | viability, T/C [7] [%] | viability, T/C [8] [%] | viability, T/C [9] [%] | viability, T/C [10] [%] | viability, T/C [11] [%] | viability, T/C [12] [%] | viability, T/C [13] [%] | viability, T/C [14] [%] | viability, T/C [15] [%] | viability, T/C [16] [%] | viability, T/C [17] [%] | viability, T/C [18] [%] | viability, T/C [19] [%] | viability, T/C [20] [%] | further results
1 | COc1cc(Nc2ncc3c(n2)-c2ccc(Cl)cc2C(c2c(F)cccc2OC)=NC3)ccc1C(=O)O + CC1OCC2(CCN(c3cnc(Sc4ccnc(N)c4Cl)c(N)n3)CC2)C1N | > 10 | > 10 | > 10 | 0.865 | < 0.0316 | 107 | 85.6 | 86 | 75.6 | 99 | 68.5 | 83.9 | 82.5 | 84.7 | 82.4 | 67.1 | 64 | 75 | 73.8 | 75.2 | viability, T/C [21]: 74.9%; viability, T/C [22]: 65%; viability, T/C [23]: 52.2%; viability, T/C [24]: 61%; viability, T/C [25]: 51.1%; viability, T/C [26]: 51.3%; viability, T/C [27]: 55.2%; viability, T/C [28]: 44.4%; viability, T/C [29]: 45.2%; viability, T/C [30]: 46.5%; viability, T/C [31]: 49.2%; viability, T/C [32]: 41.9%; viability, T/C [33]: 42%; viability, T/C [34]: 54%; viability, T/C [35]: 48%
2 | CC1(C)CCC(CN2CCN(c3ccc(C(=O)NS(=O)(=O)c4ccc(NCC5CCOCC5)c([N+](=O)[O-])c4)c(Oc4cnc5[nH]ccc5c4)c3)CC2)=C(c2ccc(Cl)cc2)C1 + CNCc1ccccc1-c1csc(C(C)Nc2nc(C)nc3cc(OC)c(OC)cc23)c1 | > 10 | 7.26 | > 10 | < 0.0316 | < 0.0316 | 81.9 | 111 | 105 | 75.4 | 79.5 | 67.3 | 102 | 94.9 | 77.5 | 103 | 69.9 | 42.3 | 110 | 51.5 | 65.7 | viability, T/C [21]: 59.4%; viability, T/C [22]: 58.5%; viability, T/C [23]: 42%; viability, T/C [24]: 0.58%; viability, T/C [25]: 0.56%; viability, T/C [26]: 0.78%; viability, T/C [27]: 0.7%; viability, T/C [28]: 0.34%; viability, T/C [29]: 1.88%; viability, T/C [30]: 0.18%; viability, T/C [31]: 0.21%; viability, T/C [32]: 0.17%; viability, T/C [33]: 0.17%; viability, T/C [34]: 0.39%; viability, T/C [35]: 0.28%
3 | CC(=O)OC12COC1CC(O)C1(C)C(=O)C(O)C3=C(C)C(OC(=O)C(O)C(NC(=O)OC(C)(C)C)c4ccccc4)CC(O)(C(OC(=O)c4ccccc4)C21)C3(C)C (configuration not stated) |  |  |  |  |  |  |  |  |  |  |  |  |  |  |  |  |  |  |  |  | viability, T/C (compound 0.01 µM): 90.3% [middle of 5 runs]; viability, T/C (compound 0.316 µM): 88.6% [middle of 5 runs]; viability, T/C (compound 1 µM): 94.5% [middle of 5 runs]; viability, T/C (compound 3.16 µM): 92.1% [middle of 5 runs]; IC50 (curve of compound): > 3.16 µM
4 | O=C(c1cc(Cc2n[nH]c(=O)c3ccccc23)ccc1F)N1CCN(C(=O)C2CC2)CC1 + CNCc1ccccc1-c1csc(C(C)Nc2nc(C)nc3cc(OC)c(OC)cc23)c1 | > 10 | > 10 | > 10 | < 0.0316 | < 0.0316 | 98.5 | 99.5 | 84.5 | 87.5 | 110 | 96.5 | 103 | 80.8 | 90.3 | 85.3 | 84 | 68.7 | 99.2 | 86.8 | 88.5 | viability, T/C [21]: 73.8%; viability, T/C [22]: 87.1%; viability, T/C [23]: 78.2%; viability, T/C [24]: 5.86%; viability, T/C [25]: 1.28%; viability, T/C [26]: 0.99%; viability, T/C [27]: 1.9%; viability, T/C [28]: 1.8%; viability, T/C [29]: 2.47%; viability, T/C [30]: 3.64%; viability, T/C [31]: 5.22%; viability, T/C [32]: 3.94%; viability, T/C [33]: 5.16%; viability, T/C [34]: 0.77%; viability, T/C [35]: 1.05%
5 | CN(C)C/C=C/C(=O)Nc1cc2c(Nc3ccc(F)c(Cl)c3)ncnc2cc1O[C@H]1CCOC1 |  |  |  |  |  |  |  |  |  |  |  |  |  |  |  |  |  |  |  |  | viability, T/C (compound 0.000316 µM): 98.5% [middle of 5 runs]; viability, T/C (compound 0.001 µM): 92.7% [middle of 5 runs]; viability, T/C (compound 0.00316 µM): 90.8% [middle of 5 runs]; viability, T/C (compound 0.01 µM): 95.8% [middle of 5 runs]; viability, T/C (compound 0.0316 µM): 97.7% [middle of 5 runs]; viability, T/C (compound 0.1 µM): 90% [middle of 5 runs]; IC50 (curve of compound): > 0.1 µM
6 | CC1(C)CCC(CN2CCN(c3ccc(C(=O)NS(=O)(=O)c4ccc(NCC5CCOCC5)c([N+](=O)[O-])c4)c(Oc4cnc5[nH]ccc5c4)c3)CC2)=C(c2ccc(Cl)cc2)C1 + C=CC(=O)N1CCN(c2nc(=O)n(-c3c(C)ccnc3C(C)C)c3nc(-c4c(O)cccc4F)c(F)cc23)C(C)C1 | 8.94 | 9.58 | 8.59 | 9.15 | > 10 | 84.2 | 105 | 97.6 | 93.6 | 107 | 44.9 | 98.4 | 108 | 104 | 105 | 92.2 | 47.9 | 92.8 | 108 | 91.4 | viability, T/C [21]: 109%; viability, T/C [22]: 84.8%; viability, T/C [23]: 44.7%; viability, T/C [24]: 80.1%; viability, T/C [25]: 96.9%; viability, T/C [26]: 88.7%; viability, T/C [27]: 102%; viability, T/C [28]: 89.6%; viability, T/C [29]: 46.5%; viability, T/C [30]: 96.6%; viability, T/C [31]: 73.2%; viability, T/C [32]: 69.3%; viability, T/C [33]: 84.2%; viability, T/C [34]: 81.1%; viability, T/C [35]: 57%
